Measurements: US20040115176A1, “Fibrin-based tissue-engineered vasculature” (priority 2002, published 2004)

Columns and labels:
Type in all cases: cell-based, ovine
fibrin gel constructs [1] = assay: Isolated tissue bath, relaxation of norepinephrine constriction; conditions: for relaxation of norepinephrine constriction: SNAP 10^−5 M, norepinephrine 3×10^−6
fibrin gel constructs [2] = assay: Isolated tissue bath, constriction of construct rings
fibrin gel constructs [3] = assay: Total weight of fibrin gel vessel constructs; conditions: 10 and 20 μg/ml aprotinin, two week time point
Procedure: Vessel constructs were left on 4.0 mm silastic tubing in which they were molded, and placed in a 50 ml conical with 30 ml of culture medium. The caps (fixed with 0.22 μm filter) were either attached to the pulsation device or left unattached. The constructs were incubated in a CO2 incubator at 37° C. and 5% CO2. Forty-eight hours after vessel molding, aprotinin (0-200 μg/ml) was added. Some of the vessel constructs were connected to a pneumatic pulsation system, representing a 5-10% radial distention at 60 beats/minute, and one of two pulsation time interval schemes (continuous or 1 hour per 12 hours). Aprotinin (Sigma), a competitive serine protease inhibitor which forms stable complexes with and blocks the active site of enzymes, was added to the fibrin mixture at 0, 10, 20, or 200 μg/ml of vessel medium. Aprotinin was reconstituted using culture medium, filter sterilized through a 0.22 μm syringe filter, and stored at 2.0 mg/ml/vial at 2-8° C. Tissue sections were weighed and some were placed in 10% buffered formalin for paraffin embedding, while others were placed in isolated tissue baths. The weights of the sections were added to obtain total construct weight. […]

fibrin gel constructs [4] = assay: Cell density within vessel constructs (H&E histology)
Procedure: Histological sections of the vessel constructs that were previously prepared with H&E Stain were used to count total number of cells per area. Random high powered fields were measured using Photo Spot software to calculate the actual surface area. The hematoxylin nuclear stain was used to identify the number of cells per high powered field. This was then used to calculate the number cells per surface area (cells/mm^2). Cell density within vessel constructs of the present invention was calculated using histology sections stained with hematoxylin and eosin. Total number of cells were counted per high powered field, divided by the area measured using Photospot Advanced software, and reported as number of cells/mm^2. […] However, at 10 μg/ml aprotinin and thereafter, both groups were decreased and equal. The altered pulsation group ( 1/12 pulsation) (2 wks, 608±123 cells/mm^2, n=5) was equal to both non-pulsed and pulsed at 20 μg/ml aprotinin (FIG. 17). Considering the change in cell density over time (1, 2, 3, 4 and 8 weeks), they were similar at weeks 1 and 2. […] At weeks 4 and 8, there was a significant difference between the two groups (Non-pulsed: 1 wk, 613±140, n=2; 2 wk, 591±52, n=6; 3 wk, 817±43, n=2; 4 wk, 865±17, n=4; 8 wk, 751±101, n=6; Pulsed: 1 wk, 566±33, n=2; 2 wk, 448±71, n=5; 3 wk, 480±213, n=3; 4 wk, 175±25, n=4; 8 wk, 168±54, n=3) (FIG. 18).

fibrin gel constructs [5] = assay: PCNA staining, percentage of proliferating cells
Procedure: Proliferating cell nuclear antigen stain (“PCNA”) was used to identify and quantitate the percentage of proliferating cells within the tissue-engineered vessel constructs of the present invention. PCNA is a 36 kD molecule highly conserved between species. PCNA functions as a co-factor for DNA polymerase delta in S phase and also during DNA synthesis associated with repair. The PCNA molecule has a half life greater than 20 hours and, therefore, may detect non-proliferating cells in Go phase. Tissue section were fixed in 10% buffered formalin, and paraffin embedded. Tissue sections were cut at 4 μm and placed on positive slides. Sections were then deparaffinised and rehydrated to distilled water. Endogenous peroxidase was blocked by placing sections in […] for 10 minutes and then washed in tap water. Antigen retrieval methods were then applied. Sections were either boiled in 0.01M citrate buffer, or placed in a microwave for 30 seconds on low power. Sections were then washed 1×5 minutes in […] (TBS). Sections were placed in diluted normal serum for 10 minutes, incubated with primary antibody, and washed in TBS 2×5 minutes. Sections were also incubated with biotinylated secondary antibody, and washed in TBS 2×5 minutes. Slides were then incubated in ABC reagent (streptavidin/peroxidase complex), and washed in TBS 2×5 minutes. Slides were incubated in DAB (peroxidase substrate), and washed thoroughly in running tap water. The slides were then counterstained with hematoxylin, dehydrated, and mounted. Proliferating cell nuclear antigen (PCNA) was used to identify cells that were in a proliferating state using histological staining methods. FIGS. 11A-D represent constructs that were stained at 1 week (FIGS. 11A and 11B) and 2 weeks (FIGS. 11C and 11D). The constructs in FIGS. 11A and 11C were under non-pulsed conditions. The constructs in FIGS. 11B and 11D were under pulsed conditions. The PCNA antibody was visualized with diaminobenzidine (DAB) and counter stained with hematoxylin. There was little staining visualized at the one week time point as compared to the two week time point for both the non-pulsed and pulsed constructs. The non-pulsed tissue was slightly greater at both one and two weeks. The PCNA staining was quantitated by counting the total number of positive cells per high powered field and dividing by the total number of cells in the same field to obtain percent of proliferation.

fibrin gel constructs [6] = assay: Hydroxyproline assay for collagen content of constructs
Procedure: Native tissue and vessel constructs were assayed for hydroxyproline using a modification of the methods of Reddy and Enwemeka (Clinical Biochemistry 29(3):225-9 (1996), which is hereby incorporated by reference in its entirety) to determine total collagen content. Tissues were first dabbed dry, weighed, transferred to eppendorf tubes, and then lyophilized. Samples were mixed with 2N sodium hydroxide in a total volume of 50 μl and hydrolyzed by autoclaving at 120° C. for 20 min. To the hydrolyzate was added 450 μl of chloramines-T solution containing 1.27 gm chloramines-T (Sigma) dissolved in 20 ml 50% n-propanol (Fisher) and brought to 100 ml with acetate citrate buffer containing 120 gm sodium acetate trihydrate (Fisher), 46 gm citric acid (Fisher), 12 ml acetic acid (Fisher), 34 gm sodium hydroxide bringing to 1 liter with distilled water and pH to 6.5. Mixing gently, the oxidation was allowed to proceed for 25 minutes at room temp. Samples were then gently mixed with 500 μl of Ehrlich's Reagent containing 15 gm p-dimethylaminobenzaldehyde (p-DMBA) (Sigma) dissolved in n-propanol/perchloric acid (2:1 v/v) (Fisher) and brought to 100 ml. The resulting 96-well plate of 200 μl samples was read using a spectrophotometer set to 550 nm to determine optical density, which was then correlated with collagen amount using a standard curve and a conversion factor of 8.0 μg collagen to 1 μg 4-hydroxyproline (Edwards and O'Brien, Clinica Chimica Acta 104(2):161-7 (1980), which is hereby incorporated by reference in its entirety).
Hydroxyproline is an imino acid found specifically in type I collagen at 12.5% of the total by weight. This spectrophotometric assay was used to quantitate directly the collagen content of tissue homogenates. The values are represented as μg of collagen/mg of tissue, dry weight.

[7] = altered pulsation (1 hour per 12 hours), 20 μg/ml aprotinin, 2 wks
[8] = non-pulsed, 10 μg/ml aprotinin, 14 days
[9] = non-pulsed, 20 μg/ml aprotinin, 1 wk
[10] = non-pulsed, 20 μg/ml aprotinin, 3 wk
[11] = non-pulsed, 20 μg/ml aprotinin, 4 wk
[12] = non-pulsed, 20 μg/ml aprotinin, 8 wk
[13] = non-pulsed, 20 μg/ml aprotinin, 14 days (2 wk)
[14] = non-pulsed, 200 μg/ml aprotinin, 14 days
[15] = pulsed, 10 μg/ml aprotinin, 14 days
[16] = pulsed, 20 μg/ml aprotinin, 1 wk
[17] = pulsed, 20 μg/ml aprotinin, 3 wk
[18] = pulsed, 20 μg/ml aprotinin, 4 wk
[19] = pulsed, 20 μg/ml aprotinin, 8 wk
[20] = pulsed, 20 μg/ml aprotinin, 14 days (2 wk)
[21] = pulsed, 200 μg/ml aprotinin, 14 days

CC(=O)N[C@@H](C(=O)O)C(C)(C)SN=O (racemic) [SNAP]
relaxation of norepinephrine constriction (fibrin gel constructs [1]; non-pulsed constructs): 42 % of constriction
relaxation of norepinephrine constriction (fibrin gel constructs [1]; pulsed constructs): fully
relaxation of norepinephrine constriction compared with 0, 10 and 20 μg/ml aprotinin (fibrin gel constructs [1]; SNAP 10^−7 and 10^−6 M, norepinephrine 10^−6 M, non-pulsed constructs, 200 μg/ml aprotinin): much greater

[Cl-].[K+] [KCl]
constriction (fibrin gel constructs [2]; 118 mM KCl, non-pulsed constructs grown with 10 μg/ml aprotinin): 18446±4027 dynes/cm^2
constriction (fibrin gel constructs [2]; 118 mM KCl, non-pulsed constructs grown with 20 μg/ml aprotinin): 12244±2083 dynes/cm^2
constriction (fibrin gel constructs [2]; 118 mM KCl, non-pulsed constructs grown with 200 μg/ml aprotinin): 6056±2003 dynes/cm^2
constriction (fibrin gel constructs [2]; 118 mM KCl, pulsed constructs grown with 10 μg/ml aprotinin): 19274±8302 dynes/cm^2
constriction (fibrin gel constructs [2]; 118 mM KCl, pulsed constructs grown with 20 μg/ml aprotinin): 8896±1347 dynes/cm^2
constriction (fibrin gel constructs [2]; 118 mM KCl, pulsed constructs grown with 200 μg/ml aprotinin): 2232±475 dynes/cm^2

CCCCC[C@H](O)/C=C/[C@@H]1[C@@H](C/C=C\CCCC(=O)O)[C@H]2CO[C@@H]1C2 [U46619]
constriction (fibrin gel constructs [2]; U46619 3×10^−7, non-pulsed constructs, 0 μg/ml aprotinin): 1160±775 dynes/cm^2
constriction (fibrin gel constructs [2]; U46619 3×10^−7, non-pulsed constructs, 200 μg/ml aprotinin): 2140±416 dynes/cm^2
constriction (fibrin gel constructs [2]; U46619 3×10^−7, pulsed constructs, 10 μg/ml aprotinin): 2670±944 dynes/cm^2
constriction (fibrin gel constructs [2]; U46619 3×10^−7, pulsed constructs, 200 μg/ml aprotinin): 973±240 dynes/cm^2

CC(C)NCC(O)c1ccc(O)c(O)c1 (stereo not shown) [isoproterenol]
relaxation (fibrin gel constructs [1]; isoproterenol compared with SNAP): much less than that of SNAP

NC[C@H](O)c1ccc(O)c(O)c1 [norepinephrine]
constriction (fibrin gel constructs [2]; norepinephrine 3×10^−6 M, non-pulsed constructs, 0 μg/ml aprotinin): 4743±1849 dynes/cm^2
constriction (fibrin gel constructs [2]; norepinephrine 3×10^−6 M, non-pulsed constructs, 200 μg/ml aprotinin): 965±16 dynes/cm^2
constriction (fibrin gel constructs [2]; norepinephrine 3×10^−6 M, pulsed constructs, 10 μg/ml aprotinin): 4316±1738 dynes/cm^2
constriction (fibrin gel constructs [2]; norepinephrine 3×10^−6 M, pulsed constructs, 200 μg/ml aprotinin): 101±102 dynes/cm^2

aprotinin
increase in total tissue weight with later (48 hrs) addition of aprotinin (fibrin gel constructs [3]; non-pulsed): 50%
increase in total tissue weight with later (48 hrs) addition of aprotinin (fibrin gel constructs [3]; pulsed): 130%
cell density (fibrin gel constructs [4]; [7]): 608±123 cells/mm^2
cell density (fibrin gel constructs [4]; [8]): 731±108 cells/mm^2
cell density (fibrin gel constructs [4]; [9]): 613±140 cells/mm^2
cell density (fibrin gel constructs [4]; [10]): 817±43 cells/mm^2
cell density (fibrin gel constructs [4]; [11]): 865±17 cells/mm^2
cell density (fibrin gel constructs [4]; [12]): 751±101 cells/mm^2
cell density (fibrin gel constructs [4]; [13]): 591±52 cells/mm^2
cell density (fibrin gel constructs [4]; [14]): 635±98 cells/mm^2
cell density (fibrin gel constructs [4]; [15]): 611±180 cells/mm^2
cell density (fibrin gel constructs [4]; [16]): 566±33 cells/mm^2
cell density (fibrin gel constructs [4]; [17]): 480±213 cells/mm^2
cell density (fibrin gel constructs [4]; [18]): 175±25 cells/mm^2
cell density (fibrin gel constructs [4]; [19]): 168±54 cells/mm^2
cell density (fibrin gel constructs [4]; [20]): 448±71 cells/mm^2
cell density (fibrin gel constructs [4]; [21]): 390±59 cells/mm^2
percent of proliferation (PCNA positive cells) (fibrin gel constructs [5]; [7]): 26.3±5.0%
percent of proliferation (PCNA positive cells) (fibrin gel constructs [5]; [8]): 73.3±8.8%
percent of proliferation (PCNA positive cells) (fibrin gel constructs [5]; [9]): 20.44±44.0%
percent of proliferation (PCNA positive cells) (fibrin gel constructs [5]; [10]): 55.5±4.7%
percent of proliferation (PCNA positive cells) (fibrin gel constructs [5]; [11]): 20.1±7.6%
percent of proliferation (PCNA positive cells) (fibrin gel constructs [5]; [12]): 22.8±3. %
percent of proliferation (PCNA positive cells) (fibrin gel constructs [5]; [13]): 73.6±6.3%
percent of proliferation (PCNA positive cells) (fibrin gel constructs [5]; [14]): 2.9±0.9%
percent of proliferation (PCNA positive cells) (fibrin gel constructs [5]; [15]): 12.3±3.6%
percent of proliferation (PCNA positive cells) (fibrin gel constructs [5]; [16]): 41.7±31.1%
percent of proliferation (PCNA positive cells) (fibrin gel constructs [5]; [17]): 37.5±3.6%
percent of proliferation (PCNA positive cells) (fibrin gel constructs [5]; [18]): 28.0±6.9%
percent of proliferation (PCNA positive cells) (fibrin gel constructs [5]; [19]): 14.7±7.5%
percent of proliferation (PCNA positive cells) (fibrin gel constructs [5]; [20]): 89.6±2.6%
percent of proliferation (PCNA positive cells) (fibrin gel constructs [5]; [21]): 7.7±1.9%
collagen content (fibrin gel constructs [6]; [7]): 266.6 ± 20.9 µg/mg
collagen content (fibrin gel constructs [6]; [8]): 175.2 ± 42.3 µg/mg
collagen content (fibrin gel constructs [6]; [11]): 239.9 ± 73.2 µg/mg
collagen content (fibrin gel constructs [6]; [12]): 283.5 ± 80.3 µg/mg
collagen content (fibrin gel constructs [6]; [13]): 225.0 ± 30.2 µg/mg
collagen content (fibrin gel constructs [6]; [14]): 270.1 ± 46.2 µg/mg
collagen content (fibrin gel constructs [6]; [15]): 31.5 ± 22.5 µg/mg
collagen content (fibrin gel constructs [6]; [18]): 124.5 ± 25.1 µg/mg
collagen content (fibrin gel constructs [6]; [19]): 91.8 ± 24.3 µg/mg
collagen content (fibrin gel constructs [6]; [20]): 105.9 ± 16.7 µg/mg
collagen content (fibrin gel constructs [6]; [21]): 217.3 ± 21.0 µg/mg
